Results taken from ChEMBL document CHEMBL3286303, “Synthesis and in vitro antiproliferative evaluation of novel N-alkylated 6-isobutyl- and propyl pyrimidine derivatives” (Bioorg Med Chem Lett, 2014).

Tests used:
K562 [1] = test: Cell cycle arrest in human K562 cells as assessed as accumulation at sub-G1 phase at 0.5 uM after 48 hrs by propidium iodide staining-based flow cytometric analysis relative to control; format: functional
WI-38 [2] = test: Cell cycle arrest in human WI38 cells as assessed as accumulation at S phase at 0.1 uM after 24 hrs by propidium iodide staining-based flow cytometric analysis relative to control; conditions: wi-38, 24 h
K562 [3] = test: Cell cycle arrest in human K562 cells as assessed as accumulation at G1 phase at 0.5 uM after 24 hrs by propidium iodide staining-based flow cytometric analysis relative to control; format: functional
K562 [4] = test: Cell cycle arrest in human K562 cells as assessed as accumulation at G2/M phase at 1 uM after 24 hrs by propidium iodide staining-based flow cytometric analysis relative to control; format: functional
K562 [5] = test: Cell cycle arrest in human K562 cells as assessed as accumulation at S phase at 0.5 uM after 48 hrs by propidium iodide staining-based flow cytometric analysis relative to control; format: functional
SW-620 [6] = test: Cell cycle arrest in human SW620 cells as assessed as accumulation at G1 phase at 1 uM after 48 hrs by propidium iodide staining-based flow cytometric analysis relative to control; format: functional
MCF7 [7] = test: Cell cycle arrest in human MCF7 cells as assessed as accumulation at G1 phase at 0.1 uM after 24 hrs by propidium iodide staining-based flow cytometric analysis relative to control; format: functional
SW-620 [8] = test: Cell cycle arrest in human SW620 cells as assessed as accumulation at S phase at 1 uM after 48 hrs by propidium iodide staining-based flow cytometric analysis relative to control; format: functional
HepG2 = test: Antiproliferative activity against human HepG2 cells after 72 hrs by MTT assay; format: functional, cell-based
WI-38 [9] = test: Antiproliferative activity against human WI38 cells after 72 hrs by MTT assay; format: cell-based
MCF7 [10] = test: Cell cycle arrest in human MCF7 cells as assessed as accumulation at G1 phase at 0.1 uM after 48 hrs by propidium iodide staining-based flow cytometric analysis relative to control; format: functional
K562 [11] = test: Cell cycle arrest in human K562 cells as assessed as accumulation at G2/M phase at 0.5 uM after 48 hrs by propidium iodide staining-based flow cytometric analysis relative to control; format: functional
MCF7 [12] = test: Cell cycle arrest in human MCF7 cells as assessed as accumulation at sub-G1 phase at 0.1 uM after 24 hrs by propidium iodide staining-based flow cytometric analysis relative to control; format: functional
K562 [13] = test: Cell cycle arrest in human K562 cells as assessed as accumulation at G1 phase at 1 uM after 24 hrs by propidium iodide staining-based flow cytometric analysis relative to control; format: functional
MCF7 [14] = test: Cell cycle arrest in human MCF7 cells as assessed as accumulation at S phase at 1 uM after 24 hrs by propidium iodide staining-based flow cytometric analysis relative to control; format: functional
MCR = test: Antiproliferative activity against human MCR cells after 72 hrs by MTT assay; format: cell-based; conditions: human, mcr
WI-38 [15] = test: Cell cycle arrest in human WI38 cells as assessed as accumulation at G1 phase at 0.1 uM after 24 hrs by propidium iodide staining-based flow cytometric analysis relative to control; conditions: wi-38, 24 h
K562 [16] = test: Antiproliferative activity against apoptosis-resistant, Philadelphia chromosome-positive human K562 cells after 72 hrs by PrestoBlue colorimetric assay; format: functional, cell-based; conditions: K562, 72 h
HeLa = test: Antiproliferative activity against human HeLa cells after 72 hrs by MTT assay; format: functional, cell-based
BJ = test: Antiproliferative activity against human BJ cells after 72 hrs by PrestoBlue colorimetric assay; format: cell-based
K562 [17] = test: Cell cycle arrest in human K562 cells as assessed as accumulation at G1 phase at 0.1 uM after 48 hrs by propidium iodide staining-based flow cytometric analysis relative to control; format: functional
MCF7 [18] = test: Cell cycle arrest in human MCF7 cells as assessed as accumulation at S phase at 0.1 uM after 24 hrs by propidium iodide staining-based flow cytometric analysis relative to control; format: functional
SW-620 [19] = test: Cell cycle arrest in human SW620 cells as assessed as accumulation at S phase at 1 uM after 24 hrs by propidium iodide staining-based flow cytometric analysis relative to control; format: functional
WI-38 [20] = test: Cell cycle arrest in human WI38 cells as assessed as accumulation at G1 phase at 1 uM after 48 hrs by propidium iodide staining-based flow cytometric analysis relative to control; conditions: wi-38, 48 h
MCF7 [21] = test: Cell cycle arrest in human MCF7 cells as assessed as accumulation at sub-G1 phase at 1 uM after 48 hrs by propidium iodide staining-based flow cytometric analysis relative to control; format: functional
MCF7 [22] = test: Cell cycle arrest in human MCF7 cells as assessed as accumulation at G1 phase at 1 uM after 24 hrs by propidium iodide staining-based flow cytometric analysis relative to control; format: functional
WI-38 [23] = test: Cell cycle arrest in human WI38 cells as assessed as accumulation at sub-G1 phase at 0.1 uM after 48 hrs by propidium iodide staining-based flow cytometric analysis relative to control; conditions: wi-38, 48 h
MCF7 [24] = test: Cell cycle arrest in human MCF7 cells as assessed as accumulation at G1 phase at 1 uM after 48 hrs by propidium iodide staining-based flow cytometric analysis relative to control; format: functional
MCF7 [25] = test: Cell cycle arrest in human MCF7 cells as assessed as accumulation at G2/M phase at 1 uM after 48 hrs by propidium iodide staining-based flow cytometric analysis relative to control; format: functional
SW-620 [26] = test: Cell cycle arrest in human SW620 cells as assessed as accumulation at G2/M phase at 0.1 uM after 48 hrs by propidium iodide staining-based flow cytometric analysis relative to control; format: functional
K562 [27] = test: Cell cycle arrest in human K562 cells as assessed as accumulation at G2/M phase at 0.1 uM after 24 hrs by propidium iodide staining-based flow cytometric analysis relative to control; format: functional
K562 [28] = test: Cell cycle arrest in human K562 cells as assessed as accumulation at G2/M phase at 0.1 uM after 48 hrs by propidium iodide staining-based flow cytometric analysis relative to control; format: functional
K562 [29] = test: Cell cycle arrest in human K562 cells as assessed as accumulation at G1 phase at 0.1 uM after 24 hrs by propidium iodide staining-based flow cytometric analysis relative to control; format: functional
SW-620 [30] = test: Cell cycle arrest in human SW620 cells as assessed as accumulation at sub-G1 phase at 1 uM after 24 hrs by propidium iodide staining-based flow cytometric analysis relative to control; format: functional
K562 [31] = test: Cell cycle arrest in human K562 cells as assessed as accumulation at sub-G1 phase at 0.5 uM after 24 hrs by propidium iodide staining-based flow cytometric analysis relative to control; format: functional
SW-620 [32] = test: Cell cycle arrest in human SW620 cells as assessed as accumulation at sub-G1 phase at 0.1 uM after 24 hrs by propidium iodide staining-based flow cytometric analysis relative to control; format: functional
K562 [33] = test: Cell cycle arrest in human K562 cells as assessed as accumulation at G2/M phase at 0.5 uM after 24 hrs by propidium iodide staining-based flow cytometric analysis relative to control; format: functional
MCF7 [34] = test: Cell cycle arrest in human MCF7 cells as assessed as accumulation at sub-G1 phase at 1 uM after 24 hrs by propidium iodide staining-based flow cytometric analysis relative to control; format: functional

## COCn1c(CC(COCc2ccccc2)COCc2ccccc2)c(C)c(=O)n(COC)c1=O
K562 [1]
  Activity: 15%
WI-38 [2]
  Activity: 8.9%
K562 [3]
  Activity: 85.8%
K562 [4]
  Activity: 18.4%
K562 [5]
  Activity: 18.2%
SW-620 [6]
  Activity: 53.1%
MCF7 [7]
  Activity: 25.5%
SW-620 [8]
  Activity: 22%
HepG2
  Activity: Dose-dependent effect
WI-38 [9]; Homo sapiens, WI-38, 72 h
  IC50: 300 nM
WI-38 [9]; human, wi-38, 72 h
  Activity: Dose-dependent effect
MCF7 [10]
  Activity: 23.8%
K562 [11]
  Activity: 3.9%
MCF7 [12]
  Activity: 55.5%
K562 [13]
  Activity: 53%
MCF7 [14]
  Activity: 8.1%
MCR
  Activity: Dose-dependent effect
WI-38 [15]
  Activity: 61.7%
K562 [16]
  IC50: 600 nM
HeLa
  Activity: Dose-dependent effect
  IC50: 300 nM
BJ
  IC50: 5300 nM
K562 [17]
  Activity: 49.8%
MCF7 [18]
  Activity: 9.7%
SW-620 [19]
  Activity: 16.1%
WI-38 [20]
  Activity: 45.5%
MCF7 [21]
  Activity: 78.9%
MCF7 [22]
  Activity: 14.8%
WI-38 [23]
  Activity: 38.5%
MCF7 [24]
  Activity: 11.5%
MCF7 [25]
  Activity: 3.8%
SW-620 [26]
  Activity: 15.5%
K562 [27]
  Activity: 22.2%
K562 [28]
  Activity: 23.5%
K562 [29]
  Activity: 48.4%
SW-620 [30]
  Activity: 5.2%
K562 [31]
  Activity: 3.3%
SW-620 [32]
  Activity: 4.3%
K562 [33]
  Activity: 4.8%
MCF7 [34]
  Activity: 67.1%
